US20060019971A1, “Treatment of cardiovascular disease with inhibitors of p38 kinase” (priority 2003, published 2006)
Entries after “also recorded” stand apart in the source; their conditions may differ.

Experiments:
IL-1β mRNA in HPBMCs = test: IL-1β gene expression in HPBMCs, real-time PCR; assay type: cell-based, human; settings: 1 μM SD, 2 hrs
Method: 5×10^6 HPBMCs were plated in 6-well. After 1 hour medium was removed and cells were treated with vehicle or 1μM p38 inhibitor in RPMI 1640 medium. After 1 hour cells were stimulated with 10% FCS only or 10 μg/ml CRP plus 10% FCS. After 6 hours conditioned medium was collected and IL-1b and TNFa levels were determined by ELISA. […] 5×10^6 HPBMCs were plated in 6-well. After I hour medium was removed and cells were treated with vehicle or […] p38 inhibitor in RPMI 1640 medium. After 1 hour cells were stimulated with 10% FCS only or 10 μg/ml CRP plus 10% FCS. After 2 hours RNA was extracted from the cells and TNFa (c) and IL-1b (d) expression levels were determined by real-time PCR as described in the Experimental section. […]
(§1) RNA was extracted from the cells using Qiagen RNA extraction kit according to the manufacturer's instruction. The expression of pro-inflammatory genes IL-1β, IL-6, IL-8, TNFα, COX-2, ET-1, TF were assessed by real-time PCR. […]
(§2) Real-time RT-PCR was performed in a two-step manner. cDNA synthesis and real-time detection were carried out in a PTC-100™ Thermal Cycler (MJ Research Inc, Waltham, Mass.) and an ABI Prism™ 7700 Sequence Detection System (Applied Biosystems, Foster City, Calif.), respectively. […] Relative quantitation of gene expression was performed using the relative standard curve method. […]

p38 MAP kinase = target: T1, p38 MAP kinase (Homo sapiens, UniProt Q16539); test: p38 MAP kinase phosphorylation assay (similar to Kumar); assay type: biochemical; settings: assay similar to the phosphorylation assay (Kumar)
T1 construct: expressed in transfected cells; kinase immunoprecipitated from lysates
T1 sequence (Q16539 whole entry): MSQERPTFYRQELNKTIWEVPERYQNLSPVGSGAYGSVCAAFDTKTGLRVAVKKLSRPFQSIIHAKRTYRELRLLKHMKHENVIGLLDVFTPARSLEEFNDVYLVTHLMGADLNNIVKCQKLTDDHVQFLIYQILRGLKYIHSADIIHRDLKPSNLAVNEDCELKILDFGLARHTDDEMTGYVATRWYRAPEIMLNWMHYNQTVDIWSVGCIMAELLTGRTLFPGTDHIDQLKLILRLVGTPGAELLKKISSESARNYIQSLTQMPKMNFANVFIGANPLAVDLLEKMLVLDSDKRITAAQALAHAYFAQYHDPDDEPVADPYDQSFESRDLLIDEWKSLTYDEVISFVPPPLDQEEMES
Method: Alternative assays involving in vitro analysis of potential inhibitors include those where cells (HeLa) transfected with DNA coding for relevant kinases can be activated with substances such as sorbitol, IL-1, TNF, or PMA (phorbol myristate acetate). After immunoprecipitation of cell lysates, equal aliquots of immune complexes of the kinases are pre-incubated for an adequate time with a specific concentration of the potential inhibitor followed by addition of kinase substrate buffer mix containing labeled ATP and GST-ATF2 or MBP. After incubation, kinase reactions are ceased by the addition of SDS loading buffer. Phosphorylated substrate is resolved through SDS-PAGE and visualized and quantitated in a phosphorimager. Both p38 regulation, in terms of phosphorylation, and IC50 values can be determined by quantitation. See, for example Kumar,S., McDonnell, P., Gum, R., Hand, A., Lee, J., and Young, P. (1997) Biochem. Biophys. Res. Commun. 235, 533-538.

IL-6 mRNA in HPBMCs = test: IL-6 gene expression in HPBMCs, real-time PCR; assay type: cell-based, human; settings: 1 μM SD, 6 hours
Method: FIG. 2(a) illustrates both the effect of CRP on IL-6 secretion from HPBMCs and its modulation by a p38 inhibitor. 8×10^5 HPBMCs were plated in 96-well. After 1 hour medium was removed and cells were incubated with or without 10 μg/ml of purified human CRP in serum-free RPMI 1640. In parallel experiments cells were treated with 10% FCS together with the CRP treatment. For the p38 antagonism, the p38 inhibitor was added to a final concentration of 1 μM in the parallel treatment. After 6 hours the conditioned medium was collected and IL-6 and IL-8 levels were determined by ELISA. FIG. 2(b) illustrates the effects of p38 inhibitor concentration on CRP induced IL-6 secretion from HPBMCs. 3×10^5 HPBMCs were plated in 96-well. After 1 hour medium was removed and cells were incubated with 10 μg/ml of purified human CRP plus 10% FCS in the presence of varying concentrations of p38 inhibitor. After 4 hours conditioned medium were collected and IL-6 level was determined by ELISA. […] After 6 hours RNA was extracted from the cells and IL-6 expression level was determined by real-time PCR as described in Experimental section. […]
as §1

TF mRNA in HPBMCs = test: Tissue Factor mRNA expression in HPBMCs, real-time PCR; assay type: cell-based, human; settings: 1 μM SD, 6 hours
Method: The figures illustrate the effects of CRP on TF protein and mRNA expression in HPBMCs and their modulation by p38 inhibitor. 1.5×10^6 HPBMCs were plated in 48-well. After 1 hour medium was removed and cells were incubated with or without 10 μg/ml of purified human CRP in serum-free RPMI 1640. In parallel experiments, cells were treated with 10% FCS together with the CRP treatment. For the p38 antagonism, p38 inhibitor was added to a final concentration of 1 μM in the parallel treatment. After 16 hours cells were lysed and TF protein level was determined by Western blot. TF signal was normalized by GAPDH signal. As shown in FIG. 7(c), after 6 hours TF mRNA level were determined by real-time PCR as described in the Experimental section. […]
as §1, §2

p38 MAP kinase activity (p38 MAP kinase): exhibit p38 MAP kinase activity
SMILES: C[C@@H]1CN(Cc2ccc(F)cc2)[C@@H](C)CN1C(=O)c1cc2c(C(=O)C(=O)N(C)C)c[nH]c2cc1Cl [Compound 162]
inhibition of FCS induced expression of IL-1β gene (IL-1β mRNA in HPBMCs): attenuated | inhibition of FCS invoked IL-6 mRNA expression (IL-6 mRNA in HPBMCs): almost completely blocked | inhibition of CRP invoked IL-6 mRNA expression (IL-6 mRNA in HPBMCs; CRP plus 10% FCS): almost completely blocked | inhibition of basal TF mRNA expression (TF mRNA in HPBMCs): almost completely inhibitied | inhibition of CRP induced TF mRNA expression (TF mRNA in HPBMCs; listed as SD): almost completely inhibitied; also recorded: blocked
